In US20140179606A1, “LEFT VENTRICULAR DIASTOLIC FUNCTION IMPROVING AGENT” (priority 2011, published 2014):

Legend:
[1] = system: acute heart failure model; assay: Evaluation of hemodynamics in acute heart failure model; format: in vivo, beagle; conditions: for Peak Negative dP/dt Change Ratio (%): indication of left ventricular diastolic function, 60 minutes after administration; for Peak Negative dP/dt Change Ratio (%) / Systemic Vascular Resistance Change Ratio (%) / Peak Positive dP/dt Change Ratio (%) / Left Ventricular End-Diastolic Pressure Change Ratio (%): continuous iv; for Peak Negative dP/dt Change Ratio (%) / Peak Positive dP/dt Change Ratio (%): two increasing doses; for Systemic Vascular Resistance Change Ratio (%): indication of afterload; for Peak Positive dP/dt Change Ratio (%): indication of left ventricular systolic function; for Left Ventricular End-Diastolic Pressure Change Ratio (%): indication of preload
Description: The acute heart failure model was produced by the following method. A male beagle (the weight was more than 10 kg) was anesthetized with pentobarbital sodium (30 mg/kg, intravenous administration), and then a tracheal catheter was introduced to the trachea and connected to a ventilator. The frequency of breath of the ventilator was set to 15 strokes per minute; the amount of ventilation was set to 20 mL/kg per stroke, and the respiration was controlled by using a mixed gas (Air:O2=3:0.2 as an indication). The animal was fixed with the lateral position and the hair of the left chest area, left and right femoral areas and cervical region was cut. Pentobarbital sodium (5 mg/kg/hr) was intravenously administered continuously from right cephalic vein, and the anesthesia was continued. The chest was opened at the left fourth rib, and the ascending aorta origin was exfoliated. Lactated Ringer's solution was intravenously administered continuously from the catheter inserted to the left femoral vein (5 mL/min). Further, in order to prevent the arrhythmia from occurring, propranolol hydrochloride (0.3 mL/min) was administered continuously together with the volume overload (mixed with lactated Ringer's solution) until the completion of the experiment. The left anterior descending coronary artery (LAD) was ligated 30 minutes after the administration of lactated Ringer's solution. After the hemodynamics became stable, methoxamine hydrochloride was administered continuously from the left femoral vein. In order to increase the systemic vascular resistance and thus decrease the cardiac output, methoxamine hydrochloride was maintained at the volume of 5 to 10 μg/kg/min so that the cardiac output decreased by 20% or more in comparison with the cardiac output before the volume overload, and methoxamine hydrochloride was administered continuously until the completion of the experiment.
From the point, at which the cardiac output decreased by 20% or more after the initiation of the continuous administration of methoxamine hydrochloride in comparison with the cardiac output before the administration of lactated Ringer's solution and other hemodynamics became stable, physiological saline (0.3 mL/min) was administered from the right femoral vein for 30 minutes (preceding phase of administration). Then, the compound A, (11α,13E,15α)-9-oxo-11,15-dihydroxy-16-(3-methoxymethylphenyl)-17,18,19,20-tetranor-5-tiaprost-13-enoic acid methyl ester (the EP4 agonist described in Example 1 of WO2000/003980, abbreviated to […] below), and carperitide (atrial natriuretic peptide), nitroglycerin (a vasodilator), nicorandil (a vasodilator) and milrinone (a phosphodiesterase III inhibitor: a compound having a cardiac effect and a vasodilation effect), which are existing agents for treating heart failure, were each administered for 30 minutes with increasing the dose gradually from the right femoral vein at the doses in the following table. The administered groups (four examples each) and the doses are shown below.
The measurement of cardiac hemodynamics was conducted every 10 minutes both during the preceding phase of administration and during the continuous administration of each dose.
Through the catheter introducer inserted to the right femoral artery, a pig tale catheter was introduced and indwelled in the left ventricle and connected to a disposable blood pressure transducer, and the left ventricular pressure (LVP) was measured through an amplifier for the measurement. […]

normal dog = assay: Left ventricular action in a normal dog; format: in vivo
Source text: From the above results, it was considered that milrinone is not always appropriate for administering to a diastolic heart failure patient with normal systolic function because milrinone has a strong cardiotonic action, while the compound A selectively improves left ventricular diastolic function as compared with the effect to improve systolic function and thus is also effective for a diastolic heart failure patient with normal systolic function as well as a systolic heart failure patient in which both diastolic function and systolic function are impaired.

[2] = Toxicity, repeated oral administration to a dog for four weeks; format: in vivo; conditions: dose up to 30 times the dose showing vasodilation effect on single administration
Source text: Toxicity of the compound used for the agent of present invention is very low, and the compound is safe enough to be used as a medicine.

[3] = system: Dahl rat heart failure model; assay: Cardiac function and survival rate using Dahl rat (hypertensive / chronic heart failure model); format: in vivo; conditions: oral, two times a day for 90 days, compound A 300 μg/kg, milrinone 1000 μg/kg; for survival rate: FIG. 2; for left ventricular diastolic wall strain (DWS) index: FIG. 3
Description: A model of hypertensive heart failure, which is diastolic heart failure, was prepared by feeding solid feed for high salt load rat (corresponding to 8% salt) to 47-day-old male DIS/Eis rats (Dahl rats). Solid feed for normal feed rat (corresponding to 0.3% salt) was fed to a normal control group (10 examples).
The test compounds were orally administered repeatedly for 90 days two times a day with the dose of 5 mL/kg using a stomach tube to 13-week-old Dahl rats. The dose of the compound A was 300 μg/kg and the dose of milrinone was 1000 μg/kg (30 examples each).
The cardiac functions were measured with using an ultrasound imaging device under 2% isoflurane anesthesia by a general anesthesia device for an animal before the administration (12 weeks old: grouping value), on the 45th day of the administration and the 91st day of the administration. The hair of the chest area of a rat was removed and the changes in the left ventricular end-diastolic dimension, the left ventricular end-systolic dimension, the end-diastolic left ventricular anterior wall thickness, the end-diastolic left ventricular posterior wall thickness, the end-systolic left ventricular posterior wall thickness and the left ventricular posterior epicardial surface were measured with placing a linear probe on the chest area with M-mode. Further, the left ventricular ejection fraction (LVEF) and the left ventricular diastolic wall strain (DWS) index as the indication of left ventricular diastolic function were calculated.
The general state was observed once or twice a day throughout the experiment period, and dead or alive was confirmed and the general symptoms were recorded.

SMILES | Peak Negative dP/dt Change Ratio (%) [1] [%] | PaO2 (arterial oxygen pressure) change ratio ([1]; continuous iv 3, 10 ng/kg/min) [%] | increase of cardiac output ([1]; continuous iv 3, 10 ng/kg/min) | urine volume change ratio ([1]; continuous iv 3, 10 ng/kg/min) [%] | Systemic Vascular Resistance Change Ratio (%) [1] [%] | Peak Positive dP/dt Change Ratio (%) [1] [%] | Left Ventricular End-Diastolic Pressure Change Ratio (%) [1] [%] | left ventricular diastolic / systolic action in a normal dog (normal dog) | toxicity [2] | survival rate [3] | left ventricular diastolic wall strain (DWS) index [3]
CC[C@H](C)[C@@H]1NC(=O)[C@H](CCCNC(=N)N)NC(=O)[C@H](CC(=O)O)NC(=O)[C@H](CCSC)NC(=O)[C@H](CCCNC(=N)N)NC(=O)CNC(=O)CNC(=O)[C@H](Cc2ccccc2)NC(=O)[C@@H](NC(=O)[C@H](CO)NC(=O)[C@H](CO)NC(=O)[C@H](CCCNC(=N)N)NC(=O)[C@H](CCCNC(=N)N)NC(=O)[C@H](CC(C)C)NC(=O)[C@@H](N)CO)CSSC[C@@H](C(=O)N[C@@H](CC(N)=O)C(=O)N[C@@H](CO)C(=O)N[C@@H](Cc2ccccc2)C(=O)N[C@@H](CCCNC(=N)N)C(=O)N[C@@H](Cc2ccc(O)cc2)C(=O)O)NC(=O)CNC(=O)[C@H](CC(C)C)NC(=O)CNC(=O)[C@H](CO)NC(=O)[C@H](CCC(N)=O)NC(=O)[C@H](C)NC(=O)CNC1=O [Carperitide, carperitide] | −6 |  |  |  |  |  |  |  |  |  | 
O=C(O)CCCSCCN1C(=O)CC[C@@H]1/C=C/[C@@H](O)Cc1ccc(F)cc1 [Compound A, 4-[(2-{(2R)-2-[(1E,3S)-4-(4-fluorophenyl)-3-hydroxy-1-buten-1-yl]-5-oxo-1-pyrrolidinyl}ethyl)thio]butanoic acid] | 48 | 111.5 | about 60% | 145.4 | −34 | 16 | −42 | did not show left ventricular diastolic action or left ventricular systolic action | not found to be toxic | drastically improved the survival rate | remarkably improved DWS
COCc1cccc(CC(O)/C=C/C2C(O)CC(=O)C2CCSCCCC(=O)OC)c1 (stereo not drawn) [Compound B, (11α,13E,15α)-9-oxo-11,15-dihydroxy-16-(3-methoxymethylphenyl)-17,18,19,20-tetranor-5-tiaprost-13-enoic acid methyl ester] | −3 |  |  |  | −43 | −4 | −41 |  |  |  | 
O=C(O)CCCCCCN1C(=O)CC[C@@H]1CC[C@@H](O)Cc1cccc(C(F)(F)F)c1 [Compound C] | −1 |  |  |  | −14 | 2 | −37 |  |  |  | 
O=C(O)CCCSCCN1C(=O)CC[C@@H]1CC[C@@H](O)c1cccc(Oc2cccc(F)c2)c1 [Compound D] | −5 |  |  |  | −42 | −9 | −46 |  |  |  | 
Cc1[nH]c(=O)c(C#N)cc1-c1ccncc1 [Milrinone, milrinone] | 23 |  |  |  |  | 38 |  | showed a strong left ventricular systolic effect |  | the degree of the improvement of the survival rate was small | did not improve DWS
O=C(NCCO[N+](=O)[O-])c1cccnc1 [Nicorandil, nicorandil] | −7 |  |  |  |  |  |  |  |  |  | 
O=[N+]([O-])OCC(CO[N+](=O)[O-])O[N+](=O)[O-] [Nitroglycerin, nitroglycerin] | −8 |  |  |  |  |  |  |  |  |  | 
